Laboratory results from ChEMBL document CHEMBL4311986, “Synthesis and biological evaluation of new multi-target 3-(1H-indol-3-yl)pyrrolidine-2,5-dione derivatives with potential antidepressant effect” (Eur J Med Chem, 2019).

Tests used:
[1] = target: Sodium-dependent serotonin transporter (Homo sapiens, UniProt P31645); experiment: Displacement of [3H]-imipramine from human serotonin transporter expressed in HEK293 cells membranes incubated for 30 mins by microbeta scintillation counting analysis; type: cell membranes
[2] = target: T1, 5-hydroxytryptamine receptor 1A (Homo sapiens, UniProt P08908); experiment: biochemical
T1 sequence (P08908 whole entry): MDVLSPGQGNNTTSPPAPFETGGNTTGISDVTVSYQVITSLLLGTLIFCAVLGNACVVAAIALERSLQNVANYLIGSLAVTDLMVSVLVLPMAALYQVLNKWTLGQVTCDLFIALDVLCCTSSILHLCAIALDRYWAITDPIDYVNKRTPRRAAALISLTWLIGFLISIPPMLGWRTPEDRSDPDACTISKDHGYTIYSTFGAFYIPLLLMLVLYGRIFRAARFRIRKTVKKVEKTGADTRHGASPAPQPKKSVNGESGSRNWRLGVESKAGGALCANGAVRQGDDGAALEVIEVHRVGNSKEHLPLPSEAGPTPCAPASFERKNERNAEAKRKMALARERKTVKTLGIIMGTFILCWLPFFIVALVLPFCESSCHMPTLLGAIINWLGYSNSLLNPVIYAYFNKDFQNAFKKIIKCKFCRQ

Mus musculus [3] = experiment: Induction of hypothermia in CD-1 mouse assessed as change in body temperature at 20 mg/kg, ip measured after 120 mins by thermometric method; type: functional, organism-based
Mus musculus [4] = experiment: Induction of hypothermia in CD-1 mouse assessed as change in body temperature at 10 mg/kg, ip measured after 30 mins by thermometric method; type: functional, organism-based
Mus musculus [5] = experiment: Induction of hypothermia in CD-1 mouse assessed as change in body temperature at 20 mg/kg, ip measured after 30 mins by thermometric method; type: functional, organism-based
Mus musculus [6] = experiment: Induction of hypothermia in CD-1 mouse assessed as change in body temperature at 5 mg/kg, ip measured after 60 mins by thermometric method; type: functional, organism-based
[7] = Half life in human liver microsomes at 1 uM measured for 5 to 30 mins in presence of NADPH by LC-MS/MS analysis; type: ADME, Microsome
Mus musculus [8] = experiment: Induction of hypothermia in CD-1 mouse assessed as change in body temperature at 10 mg/kg, ip measured after 60 mins by thermometric method; type: functional, organism-based
Mus musculus [9] = experiment: Induction of hypothermia in CD-1 mouse assessed as change in body temperature at 10 mg/kg, ip measured after 90 mins by thermometric method; type: functional, organism-based
Mus musculus [10] = experiment: Induction of hypothermia in CD-1 mouse assessed as change in body temperature at 20 mg/kg, ip measured after 90 mins by thermometric method; type: functional, organism-based
Mus musculus [11] = experiment: Induction of hypothermia in CD-1 mouse assessed as change in body temperature at 5 mg/kg, ip measured after 30 mins by thermometric method; type: functional, organism-based
Mus musculus [12] = experiment: Induction of hypothermia in CD-1 mouse assessed as change in body temperature at 10 mg/kg, ip pretreated for 60 mins with 5-HT1AR antagonist WAY100635 followed by compound treatment and measured after 30 mins by thermometric method; type: functional, organism-based
Mus musculus [13] = experiment: Induction of hypothermia in CD-1 mouse assessed as change in body temperature at 10 mg/kg, ip pretreated for 30 mins with 5-HT1AR antagonist WAY100635 followed by compound treatment and measured after 30 mins by thermometric method; type: functional, organism-based
Mus musculus [14] = experiment: Induction of hypothermia in CD-1 mouse assessed as change in body temperature at 10 mg/kg, ip measured after 120 mins by thermometric method; type: functional, organism-based
[15] = target: 5-hydroxytryptamine receptor 7 (Homo sapiens, UniProt P34969); experiment: Displacement of [3H]-5-CT from human 5HT7 receptor expressed in HEK293 cells incubated for 1 hr by liquid scintillation counting method; type: cell-based
Mus musculus [16] = experiment: Induction of hypothermia in CD-1 mouse assessed as change in body temperature at 20 mg/kg, ip measured after 60 mins by thermometric method; type: functional, organism-based
Mus musculus [17] = experiment: Induction of hypothermia in CD-1 mouse assessed as change in body temperature at 5 mg/kg, ip measured after 120 mins by thermometric method; type: functional, organism-based
[18] = target: 5-hydroxytryptamine receptor 6 (Homo sapiens, UniProt P50406); experiment: Displacement of [3H]-LSD from human 5-HT6 receptor expressed in HEK293 cells incubated for 1 hr by liquid scintillation counting method; type: cell-based
Mus musculus [19] = experiment: Induction of hypothermia in CD-1 mouse assessed as change in body temperature at 5 mg/kg, ip measured after 90 mins by thermometric method; type: functional, organism-based
D(2) dopamine receptor = D(2) dopamine receptor (Homo sapiens, UniProt P14416); experiment: Displacement of [3H]-raclopride from human D2L receptor expressed in HEK293 cells incubated for 1 hr by liquid scintillation counting method; type: cell-based
Mus musculus [20] = experiment: Induction of hypothermia in CD-1 mouse assessed as change in body temperature at 15 mg/kg, ip pretreated for 30 mins with 5-HT1AR antagonist WAY100635 followed by compound treatment and measured after 30 mins by thermometric method (reference value: -0.1 to 0.1 deg C); type: functional, organism-based
Mus musculus [21] = experiment: Induction of hypothermia in CD-1 mouse assessed as change in body temperature at 15 mg/kg, ip pretreated for 60 mins with 5-HT1AR antagonist WAY100635 followed by compound treatment and measured after 30 mins by thermometric method (reference value: -0.1 to 0.4 deg C); type: functional, organism-based
Mus musculus [22] = experiment: Induction of hypothermia in CD-1 mouse assessed as change in body temperature at 15 mg/kg, ip measured after 60 mins by thermometric method (reference value: -0.2 to 0.5 deg C); type: functional, organism-based
Mus musculus [23] = experiment: Induction of hypothermia in CD-1 mouse assessed as change in body temperature at 15 mg/kg, ip measured after 120 mins by thermometric method (reference value: -0.1 to 0.3 deg C); type: functional, organism-based
Mus musculus [24] = experiment: Induction of hypothermia in CD-1 mouse assessed as change in body temperature at 15 mg/kg, ip measured after 30 mins by thermometric method (reference value: -0.2 to 0.4 deg C); type: functional, organism-based
Mus musculus [25] = experiment: Induction of hypothermia in CD-1 mouse assessed as change in body temperature at 15 mg/kg, ip measured after 90 mins by thermometric method (reference value: -0.3 to 0.3 deg C); type: functional, organism-based

Sequence of Sodium-dependent serotonin transporter (P31645 whole entry): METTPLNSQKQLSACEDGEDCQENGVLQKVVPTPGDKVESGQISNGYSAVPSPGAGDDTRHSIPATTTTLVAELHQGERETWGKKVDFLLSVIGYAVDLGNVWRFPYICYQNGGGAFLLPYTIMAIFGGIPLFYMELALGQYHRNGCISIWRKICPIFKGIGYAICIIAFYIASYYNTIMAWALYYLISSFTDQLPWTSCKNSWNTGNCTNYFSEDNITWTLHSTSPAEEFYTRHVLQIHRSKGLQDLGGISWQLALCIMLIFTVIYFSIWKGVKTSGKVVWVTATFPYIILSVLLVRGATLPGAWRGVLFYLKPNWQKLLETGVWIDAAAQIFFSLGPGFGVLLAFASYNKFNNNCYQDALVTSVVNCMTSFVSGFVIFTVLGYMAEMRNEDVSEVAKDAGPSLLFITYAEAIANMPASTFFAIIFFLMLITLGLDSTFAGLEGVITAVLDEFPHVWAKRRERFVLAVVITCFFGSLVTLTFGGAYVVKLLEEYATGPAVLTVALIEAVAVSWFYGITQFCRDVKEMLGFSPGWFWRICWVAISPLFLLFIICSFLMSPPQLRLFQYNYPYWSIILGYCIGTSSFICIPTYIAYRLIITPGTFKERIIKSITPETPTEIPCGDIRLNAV
Sequence of D(2) dopamine receptor (P14416 whole entry): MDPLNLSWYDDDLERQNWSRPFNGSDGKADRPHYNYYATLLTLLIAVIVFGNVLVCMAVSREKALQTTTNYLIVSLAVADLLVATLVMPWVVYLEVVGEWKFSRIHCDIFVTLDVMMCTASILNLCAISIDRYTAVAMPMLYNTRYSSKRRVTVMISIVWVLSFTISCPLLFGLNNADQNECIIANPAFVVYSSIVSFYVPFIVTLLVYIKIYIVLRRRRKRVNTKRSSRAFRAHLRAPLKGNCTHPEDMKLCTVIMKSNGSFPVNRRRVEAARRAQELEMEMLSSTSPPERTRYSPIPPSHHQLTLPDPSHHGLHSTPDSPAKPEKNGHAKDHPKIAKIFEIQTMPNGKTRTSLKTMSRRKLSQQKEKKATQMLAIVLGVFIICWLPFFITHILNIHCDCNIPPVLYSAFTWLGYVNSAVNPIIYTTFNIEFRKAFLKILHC
Sequence of 5-hydroxytryptamine receptor 7 (P34969 whole entry): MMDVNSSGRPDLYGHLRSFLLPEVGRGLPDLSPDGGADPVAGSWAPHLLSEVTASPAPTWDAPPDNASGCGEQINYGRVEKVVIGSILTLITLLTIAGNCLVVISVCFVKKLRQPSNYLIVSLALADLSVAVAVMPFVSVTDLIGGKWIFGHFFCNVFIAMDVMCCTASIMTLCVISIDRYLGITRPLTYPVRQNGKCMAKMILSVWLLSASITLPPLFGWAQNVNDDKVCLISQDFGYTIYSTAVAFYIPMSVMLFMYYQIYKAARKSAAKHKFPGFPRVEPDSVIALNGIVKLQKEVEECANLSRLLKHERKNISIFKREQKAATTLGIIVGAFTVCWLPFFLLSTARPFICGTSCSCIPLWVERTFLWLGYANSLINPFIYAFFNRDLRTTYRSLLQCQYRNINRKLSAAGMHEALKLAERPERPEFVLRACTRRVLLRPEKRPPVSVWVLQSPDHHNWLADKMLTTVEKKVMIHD
Sequence of 5-hydroxytryptamine receptor 6 (P50406 whole entry): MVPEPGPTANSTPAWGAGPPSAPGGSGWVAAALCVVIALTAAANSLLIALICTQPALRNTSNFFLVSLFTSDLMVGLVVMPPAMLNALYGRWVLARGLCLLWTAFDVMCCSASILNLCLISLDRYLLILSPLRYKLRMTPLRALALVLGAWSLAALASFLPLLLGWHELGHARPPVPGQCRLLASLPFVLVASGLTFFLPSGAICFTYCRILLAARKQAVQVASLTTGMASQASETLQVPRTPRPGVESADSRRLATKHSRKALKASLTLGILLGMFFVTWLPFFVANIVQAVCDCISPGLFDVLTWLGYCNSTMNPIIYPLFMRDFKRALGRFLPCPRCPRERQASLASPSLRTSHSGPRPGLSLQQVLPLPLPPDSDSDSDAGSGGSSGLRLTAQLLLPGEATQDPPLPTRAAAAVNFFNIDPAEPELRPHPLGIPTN

Compound | Ki [1] [nM] | Ki [2] [nM] | deltaT (Mus musculus [3]) [°C] | deltaT (Mus musculus [4]) [°C] | deltaT (Mus musculus [5]) [°C] | deltaT (Mus musculus [6]) [°C] | half-life at 1 µM [7] [min] | deltaT (Mus musculus [8]) [°C] | deltaT (Mus musculus [9]) [°C] | deltaT (Mus musculus [10]) [°C] | deltaT (Mus musculus [11]) [°C] | deltaT (Mus musculus [14]) [°C] | Ki [15] [nM] | deltaT (Mus musculus [16]) [°C] | deltaT (Mus musculus [17]) [°C] | Ki [18] [nM] | deltaT (Mus musculus [19]) [°C] | Ki (D(2) dopamine receptor) [nM] | other results
COc1ccc2[nH]cc(C3CC(=O)N(CCN4CCC(c5c[nH]c6ccc(F)cc56)CC4)C3=O)c2c1 (centres undefined) | 221 | 222 | – | – | – | – | – | – | – | – | – | – | – | – | – | – | – | – | –
COc1ccc2[nH]cc(C3CCN(CCCCN4C(=O)CC(c5c[nH]c6ccc(F)cc56)C4=O)CC3)c2c1 (centres undefined) | 201 | 3.2 | -0.2 | -1.1 | -3.2 | 0.6 | 9.9 | 0.2 | 0.2 | -0.6 | 0.4 | 0.3 | 458 | -1.4 | 0.8 | 71 | 0.6 | 20 | deltaT (Mus musculus [12]): 0.8 °C; deltaT (Mus musculus [13]): -0.4 °C
O=C1CC(c2c[nH]c3ccc(F)cc23)C(=O)N1CCCN1CCC(c2c[nH]c3ccc(F)cc23)CC1 (centres undefined) | 140 | 336 | – | – | – | – | – | – | – | – | – | – | – | – | – | – | – | – | –
O=C1CC(c2c[nH]c3ccccc23)C(=O)N1CCCCN1CCCC(c2c[nH]c3ccc(F)cc23)C1 (centres undefined) | – | 183 | – | – | – | – | – | – | – | – | – | – | – | – | – | – | – | – | –
COc1ccc2[nH]cc(C3CC(=O)N(CCCCN4CCC(c5c[nH]c6ccccc56)CC4)C3=O)c2c1 (centres undefined) | 705 | 6.3 | -0.9 | -1.3 | -2.9 | 0 | 10.5 | -0.4 | -0.4 | -1.1 | -0.2 | -0.4 | 25 | -1.5 | -0.1 | 81 | 0 | 16 | deltaT (Mus musculus [12]): 0.5 °C; deltaT (Mus musculus [13]): 0.4 °C
O=C1CC(c2c[nH]c3ccc(F)cc23)C(=O)N1CCCCN1CCC(c2c[nH]c3ccc(F)cc23)CC1 (centres undefined) | 32.4 | 7 | 0.5 | -1 | -2 | 0.2 | 8.6 | -0.1 | 0.3 | 0.1 | 0.4 | 0.4 | 1160 | -0.4 | 0.3 | 301 | 0.4 | 19 | deltaT (Mus musculus [12]): 0.4 °C; deltaT (Mus musculus [13]): 0.4 °C
COc1ccc2[nH]cc(C3CC(=O)N(CCN4CCC(c5c[nH]c6ccccc56)CC4)C3=O)c2c1 (centres undefined) | 142 | 48.7 | – | – | – | – | – | – | – | – | – | – | – | – | – | – | – | – | –
O=C1CC(c2c[nH]c3ccc(F)cc23)C(=O)N1CCCCN1CCC(c2c[nH]c3ccccc23)CC1 (centres undefined) | 51 | 13 | -0.6 | -0.6 | -2.3 | -0.2 | 10 | 0.1 | 0 | -0.2 | -0.4 | -0.2 | 50 | -0.7 | -0.3 | 29 | -0.2 | 190 | deltaT (Mus musculus [20]): 0.1 °C; deltaT (Mus musculus [21]): 0.3 °C; deltaT (Mus musculus [22]): -0.7 °C; deltaT (Mus musculus [23]): -0.4 °C; deltaT (Mus musculus [24]): -1.8 °C; deltaT (Mus musculus [25]): -0.4 °C
COc1ccc2[nH]cc(C3CCCN(CCCCN4C(=O)CC(c5c[nH]c6ccccc56)C4=O)C3)c2c1 (centres undefined) | – | 78 | – | – | – | – | – | – | – | – | – | – | – | – | – | – | – | – | –
COc1ccc2[nH]cc(C3CCN(CCCCN4C(=O)CC(c5c[nH]c6ccc(OC)cc56)C4=O)CC3)c2c1 (centres undefined) | 308 | 2.3 | -0.5 | -0.5 | -3.1 | 0.3 | 9.7 | 0.6 | 0.6 | -0.6 | 0.2 | 0.4 | 320 | -1.2 | 0.4 | 427 | 0.2 | 217 | deltaT (Mus musculus [20]): 0.8 °C; deltaT (Mus musculus [21]): 0 °C; deltaT (Mus musculus [22]): 0.2 °C; deltaT (Mus musculus [23]): 0.3 °C; deltaT (Mus musculus [24]): -0.9 °C; deltaT (Mus musculus [25]): 0.5 °C
O=C1CC(c2c[nH]c3ccccc23)C(=O)N1CCCCN1CCCC(c2c[nH]c3ccccc23)C1 (centres undefined) | – | 122 | – | – | – | – | – | – | – | – | – | – | – | – | – | – | – | – | –
COc1ccc2[nH]cc(C3CCN(CCCN4C(=O)CC(c5c[nH]c6ccc(OC)cc56)C4=O)CC3)c2c1 (centres undefined) | 111 | 68.7 | – | – | – | – | – | – | – | – | – | – | – | – | – | – | – | – | –
